Data on 2 compounds can be found in US10738018B2, “Compounds for therapeutic use” (Dart NeuroScience, LLC, priority 2016, dated 2020).

Each structure is given as a SMILES string.

A short description of data set [1]: Conversion of Formula (I) compounds to HNK upon administration to a subject. The format is in vivo. As to conditions: possible two-step process: hydrolysis under acid conditions, then enzymatic conversion by esterase action. An excerpt: In this prophetic example, exemplary compounds of Formula (I) yield HNK upon administration to a subject, such as a patient in a clinical trial, in one or more steps. For example, in one possible pathway illustrated in the following schematic, exemplary compounds of Formula (I) may yield HNK in a two-step process, consisting of hydrolysis in Step 1 under acid conditions, such as those in the stomach, and subsequent enzymatic conversion by esterase action.

For the next data set, the system named is mice. The note with it: cited from earlier work.

Take `CC(O)C1=N[C@@]2(c3ccccc3Cl)CCC[C@@H](O1)C2=O` (stereo partly drawn) [Example 2, (1R,5R)-5-(2-chlorophenyl)-3-(1-hydroxyethyl)-2-oxa-4 azabicyclo[3.3.1]non-3-en-9-one]: the “conversion to HNK upon administration” value in data set [1] is “may give rise to HNK and lactic acid”.
On to `N[C@@]1(c2ccccc2Cl)CCC[C@@H](O)C1=O` [(2R,6R)-hydroxynorketamine], for which the antidepressant activity entry with mice is given as “has antidepressant activity”.
